# Patent US9375005B2, “5-halogenopyrazole indanyl carboxamides” (BAYER CROPSCIENCE AG, priority 2012, dated 2016)
# Marks after values point to notes of the source that are not given here.
# Experiments:
# [1] = Measurement of log P values by HPLC on reversed phase columns (EEC directive 79/831 Annex V.A8); assay type: physicochemical
# Puccinia recondita = experiment: In vivo preventive test on Puccinia recondita (brown rust on wheat); settings: wheat plants sprayed 24 h before contamination, grading 12 days after contamination
# Experimental: Plants, used as controls, are treated with the mixture of acetone/tween/DMSO/water not containing the active material. After 24 hours, the plants are contaminated by spraying the leaves with an aqueous suspension of Puccinia recondita spores (100 000 spores per ml). […] Grading (% of efficacy) is carried out 12 days after the contamination, in comparison with the control plants.
# Uromyces appendiculatus = experiment: In vivo preventive test on Uromyces appendiculatus (bean rust); settings: bean plants sprayed 24 h before contamination, grading 11 days after contamination
# Experimental: Bean plants (“Saxa” variety), sown in starter cups on a 50/50 peat soil-pozzolana substrate and grown at 24° C., are treated at the 2-leaf stage (9 cm height) by spraying with the active ingredient prepared as described above. Plants, used as controls, are treated with the mixture of acetone/tween/DMSO/water not containing the active material. After 24 hours, the plants are contaminated by spraying the leaves with an aqueous suspension of Uromyces appendiculatus spores (150 000 spores per ml). […] Grading (% of efficacy) is carried out 11 days after the contamination, in comparison with the control plants.
# [2] = method [a]: LC-MS at pH 2.7, 0.1% formic acid in water / acetonitrile, gradient 10% to 95% acetonitrile
# [3] = method [b]: LC-MS at pH 7.8, 0.001 molar ammonium hydrogen carbonate in water, gradient 10% to 95% acetonitrile
SMILES,logP ([1]; method marked [a]),"logP [1, 2]",other results
CON=C1CCc2c(NC(=O)c3c(C(F)F)nn(C)c3Cl)cccc21 [Example 25],2.82[a],–,–
CC(C)CC1CCc2c(N)cccc21 (racemic) [III-a-22],–,2.64[a],–
Cn1nc(C(F)F)c(C(=O)Nc2cccc3c2CC2CCCCC32)c1Cl (centres unmarked) [Example 54],4.54[a],–,Eff. % (Puccinia recondita; dose 500 ppm): 94%; Eff. % (Uromyces appendiculatus; dose 500 ppm): 100%
CC(C)CC1CC(C)c2c(NC(=O)c3c(C(F)F)nn(C)c3Cl)cccc21 (centres unmarked) [Example 99],5.01[a],–,Eff. % (Puccinia recondita; dose 100 ppm): 100%; Eff. % (Uromyces appendiculatus; dose 100 ppm): 100%
Cn1nc(C(F)F)c(C(=O)Nc2cccc3c2CCC3C(C)(C)C)c1Cl (centres unmarked) [Example 67],4.64[a],–,Eff. % (Puccinia recondita; dose 500 ppm): 94%; Eff. % (Uromyces appendiculatus; dose 500 ppm): 100%
Cc1ccc(N)c2c1C(C)(C)CC2C (centres unmarked) [III-a-9],–,2.16[a];,"logP [1, 3]: 3.52[b]"
CC(C)C1Cc2cccc(N)c2C1C (mixture of isomers) [III-a-24],–,2.9[a],–
CC1c2cccc(NC(=O)c3c(C(F)F)nn(C)c3Br)c2CC1(C)C (centres unmarked) [Example 81],4.16[a],–,Eff. % (Puccinia recondita; dose 500 ppm): 98%; Eff. % (Uromyces appendiculatus; dose 500 ppm): 99%
Nc1cccc2c1CC1(CCCC1)C2 [III-a-7],–,2.1[a],–
CC1CC2(CCCC2)c2cccc(NC(=O)c3c(C(F)F)nn(C)c3Cl)c21 (centres unmarked) [Example 111],4.64[a],–,Eff. % (Puccinia recondita; dose 100 ppm): 98%; Eff. % (Uromyces appendiculatus; dose 100 ppm): 100%
CC(C)C1Cc2c(NC(=S)c3c(C(F)F)nn(C)c3Br)cccc2C1(C)C (centres unmarked) [Example 102],4.87[a],–,Eff. % (Puccinia recondita; dose 100 ppm): 94%; Eff. % (Uromyces appendiculatus; dose 100 ppm): 100%
CCC1(C)CCc2c(N)cccc21 (racemic) [III-a-26],–,1.88[a],–
CC1CC(C)(C)c2c(C3CC3)ccc(N)c21 (centres unmarked) [III-a-8],–,2.81[a],–
CC1CC(C)(C)c2c(C3CC3)ccc(NC(=O)c3c(C(F)F)nn(C)c3Cl)c21 (centres unmarked) [Example 16],4.57[a];,–,Eff. % (Puccinia recondita; dose 500 ppm): 94%; logP ([1]; method marked [b]): 4.57[b]; Eff. % (Uromyces appendiculatus; dose 500 ppm): 95%
CC1CC(C)(C)c2c(Br)ccc(NC(=O)c3c(C(F)F)nn(C)c3F)c21 (centres unmarked) [Example 38],4.45[a];,–,Eff. % (Puccinia recondita; dose 500 ppm): 71%; logP ([1]; method marked [b]): 4.35[b]
Nc1cccc2c1CC(Cc1ccccc1)C2 (centres unmarked) [III-a-21],–,2.54[a],–
CC(C)C1Cc2c(N)cccc2C1C (centres unmarked) [III-a-11],–,2.34[a],–
"CC(C)C1Cc2c(NC(=S)c3c(C(F)F)nn(C)c3Cl)cccc2C1(C)C (centres unmarked) [Example 94, 5-chloro-3-(difluoromethyl)-N-(2-isopropyl-1,1-dimethyl-2,3-dihydro-1H-inden-4-yl)-1-methyl-1H-pyrazole-4-carbothioamide]",–,–,Eff. % (Puccinia recondita; dose 500 ppm): 89%; logP ([1]; pH 2.7): 4.92[a]; Eff. % (Uromyces appendiculatus; dose 500 ppm): 99%
CCC1Cc2cccc(N)c2C1 (racemic) [III-a-16],–,1.76[a],–
Nc1cccc2c1CCC21CC1 [III-a-4],–,1.37[a],–
CCON=C1CCc2c(N)cccc21.Cl [III-a-15],–,1.75[a],–
CC1Cc2c(N)cccc2C1(C)C (centres unmarked) [III-a-6],–,1.95[a],–
Cn1nc(C(F)F)c(C(=O)Nc2cccc3c2CC(C)(C)C3)c1Br [Example 71],3.87[a],–,Eff. % (Puccinia recondita; dose 500 ppm): 98%; Eff. % (Uromyces appendiculatus; dose 500 ppm): 99%
CC(C)C1Cc2c(N)cccc2C1(C)C (centres unmarked) [III-a-3],–,2.8[a],–
CON=C1c2cccc(NC(=O)c3c(C(F)F)nn(C)c3Cl)c2CC1(C)C (mixture of isomers) [Example 59],–,–,Eff. % (Puccinia recondita; dose 500 ppm): 86%
CCC1(CC)CC(C)c2c(NC(=O)c3c(C(F)F)nn(C)c3F)cccc21 (centres unmarked) [Example 113],4.56[a],–,–

SMILES,logP ([1]; method marked [a]),"logP [1, 2]",other results
CC1CC2(CC2)c2cccc(NC(=O)c3c(C(F)F)nn(C)c3Br)c21 (centres unmarked) [Example 76],3.83[a],–,Eff. % (Puccinia recondita; dose 500 ppm): 98%; Eff. % (Uromyces appendiculatus; dose 500 ppm): 100%
CC1CC(C(C)C)c2cccc(N)c21 (centres unmarked) [III-a-19],–,2.86[a],–
CCCCON=C1CCc2c(N)cccc21.Cl [III-a-13],–,2.86[a],–
CCON=C1CCc2c(NC(=O)c3c(C(F)F)nn(C)c3F)cccc21 [Example 27],3.06[a],–,Eff. % (Puccinia recondita; dose 500 ppm): 72%
CC1CCc2c(NC(=O)c3c(C(F)F)nn(C)c3Cl)cccc21 (centres unmarked) [Example 109],3.52[a],–,Eff. % (Puccinia recondita; dose 100 ppm): 94%; Eff. % (Uromyces appendiculatus; dose 100 ppm): 99%
CON=C1CC(C)c2c(NC(=O)c3c(C(F)F)nn(C)c3Cl)cccc21 (centres unmarked) [Example 88],2.98[a],–,Eff. % (Puccinia recondita; dose 500 ppm): 81%; Eff. % (Uromyces appendiculatus; dose 500 ppm): 100%
CC1CC(C(C)C)c2cccc(N)c21 (centres unmarked) [III-a-18],–,2.73[a],–
Cn1nc(C(F)F)c(C(=O)Nc2cccc3c2C(C)(C)CC3)c1F [Example 100],3.31[a],–,–
Cc1ccc(NC(=O)c2c(C(F)F)nn(C)c2Cl)c2c1C(C)(C)CC2C (centres unmarked) [Example 18],4.27[a];,–,Eff. % (Puccinia recondita; dose 500 ppm): 78%; logP ([1]; method marked [b]): 4.2[b]; Eff. % (Uromyces appendiculatus; dose 500 ppm): 76%
CC1CC(C)(C)c2c(I)ccc(N)c21 (centres unmarked) [III-a-10],–,4.1[a],–
CC1CC2(CC2(Cl)Cl)c2cccc(NC(=O)c3c(C(F)F)nn(C)c3F)c21 (centres unmarked) [Example 1],3.68[a],–,Eff. % (Uromyces appendiculatus; dose 500 ppm): 100%
CON=C1CCc2c(NC(=O)c3c(C(F)F)nn(C)c3F)cccc21 [Example 29],2.59[a],–,Eff. % (Puccinia recondita; dose 500 ppm): 98%
CCC1(C)CC(C)c2c(NC(=O)c3c(C(F)F)nn(C)c3F)cccc21 (centres unmarked) [Example 116],4.16[a],–,–
CC1Cc2cccc(NC(=O)c3c(C(F)F)nn(C)c3Cl)c2C1 (centres unmarked) [Example 8],3.67[a],–,Eff. % (Puccinia recondita; dose 500 ppm): 94%; Eff. % (Uromyces appendiculatus; dose 500 ppm): 100%
CON=C1CCc2c(N)cccc21.Cl [III-a-14],–,1.26[a],–
CCCON=C1CCc2c(N)cccc21.Cl [III-a-12],–,2.26[a],–
CC1CC2(CC2)c2cccc(N)c21 (racemic) [III-a-25],–,1.93[a],–
CCC1(C)CC(C)c2c(NC(=O)c3c(C(F)F)nn(C)c3Cl)cccc21 (centres unmarked) [Example 115],4.46[a],–,–
CCC1(C)CC(C)c2c(NC(=O)c3c(C(F)F)nn(C)c3Br)cccc21 (centres unmarked) [Example 117],4.44[a],–,–
CCC1(CC)CC(C)c2c(NC(=O)c3c(C(F)F)nn(C)c3Br)cccc21 (centres unmarked) [Example 114],4.82[a],–,–
CC1CC(C)(C)c2c(Cl)ccc(N)c21 (centres unmarked) [III-a-5],–,3.68[a],–
CC1CC(C)(C)c2c(Br)ccc(N)c21 (centres unmarked) [III-a-20],–,3.85[a];,"logP [1, 3]: 3.95[b]"
CCC1(CC)CC(C)c2c(NC(=O)c3c(C(F)F)nn(C)c3Cl)cccc21 (centres unmarked) [Example 112],4.82[a],–,–
CC1CC(C)c2c(N)cccc21 (centres unmarked) [III-a-23],–,1.76[a],–
CC(C)C1Cc2cccc(N)c2C1 (centres unmarked) [III-a-2],–,2.25[a],–
CC1CC(C)c2c(NC(=O)c3c(C(F)F)nn(C)c3Cl)cccc21 (centres unmarked) [Example 43],–,–,Eff. % (Puccinia recondita; dose 500 ppm): 98%; Eff. % (Uromyces appendiculatus; dose 500 ppm): 100%

# Continued, in another order:
logP ([1]; method marked [a]),"logP [1, 2]",SMILES,other results
–,3.42[a],CC(C)CC1CC(C)c2c(N)cccc21 (centres unmarked) [III-a-39],–
–,1.76[a],CON=C1CC(C)c2c(N)cccc21.Cl (racemic) [III-a-31],–
–,4.49[a],"CCON=C1CCc2c(Br)cccc21 (single isomer, unassigned) [III-b-10]",–
–,4.23[a],CON=C1CCc2c(Br)cccc21 [III-b-24],–
–,5.28[a],CC1CC2(CC2)c2cccc(Br)c21 (centres unmarked) [III-b-20],–
–,2.78[a],CCCON=C1CC(C)c2c(N)cccc21.Cl (racemic) [III-a-29],–
–,2.63[a],CCC1(CC)Cc2c(N)cccc2C1C (racemic) [III-a-42],–
–,6.7[a],CC(C)C1Cc2c(Br)cccc2C1(C)C (centres unmarked) [III-b-3],–
–,1.44[a],CC1Cc2c(N)cccc2C1C (centres unmarked) [III-a-33],–
–,2.08[a],CON=C1c2cccc(N)c2CC1(C)C.Cl [III-a-32],–
–,3.83[a],CC1CC(CC(C)(C)C)c2cccc(N)c21 (centres unmarked) [III-a-36],–
–,2.28[a],CC1c2c(N)cccc2C(C)(C)C1C (centres unmarked) [III-a-34],–
–,5.56[a],"CCCON=C1CCc2c(Br)cccc21 (single isomer, unassigned) [III-b-22]",–
–,2.26[a],CCON=C1CC(C)c2c(N)cccc21.Cl (racemic) [III-a-30],–
–,3.35[a],CC1CC2(CCCCC2)c2cccc(N)c21 (centres unmarked) [III-a-44],–
–,5.71[a],CCCCON=C1CCc2c(Br)cccc21 [III-b-8],–
–,5.14[a],"CCCON=C1CCc2c(Br)cccc21 (single isomer, unassigned) [III-b-7]",–
–,6.57[a],CC(C)CC1CCc2c(Br)cccc21 (centres unmarked) [III-b-16],–
–,4.86[a],Brc1cccc2c1CCC21CC1 [III-b-4],–
–,2.4[a],CC(C)(C)C1CCc2c(N)cccc21 (racemic) [III-a-35],–
–,2.94[a],Nc1cccc2c1CC(C1CCCC1)C2 (centres unmarked) [III-a-28],–
–,5.31[a],CC1CC(C(C)C)c2cccc(Br)c21 (centres unmarked) [III-b-13],–
–,4.9[a],"CCON=C1CCc2c(Br)cccc21 (single isomer, unassigned) [III-b-23]",–
–,2.47[a],CCC1Cc2c(N)cccc2C1(C)C (racemic) [III-a-40],–
–,6.28[a],CCC1Cc2c(Br)cccc2C1(C)C (centres unmarked) [III-b-29],–
–,2.86[a],CC1CC2(CCCC2)c2cccc(N)c21 (racemic) [III-a-43],–
